Assay results reported in US20240000872A1, “NOVEL BACTERIOPHAGE THAT LYSES ACINETOBACTER GENUS BACTERIA HAVING RESISTANCE TO ANTIBIOTICS” (priority 2020, published 2024).

Tested on: Acinetobacter baumannii strains
Assay: Antibiotic susceptibility test (CLSI disk diffusion test method, read per CLSI 2016)
Assay type: cell-based
Description: (§1) Strain identification was performed using a kit such as AT 32 GN system (bioMérieux, Marcy l'Etoile, France). […] In Table 2 below, S, I, and R are the results obtained by evaluating susceptibility to the antibacterial agents, in which ‘S’ means susceptible, ‘I’ means intermediate, and ‘R’ means resistant.
as §1, with “as ATB” for “as AT”, “system (bioMédrieux,” for “system (bioMérieux,”, “Table 6” for “Table 2”
as §1, with “as ATB” for “as AT”, “Table 10” for “Table 2”, “susceptible, T” for “susceptible, ‘I’”

## CCN1CCN(C(=O)N[C@@H](C(=O)N[C@@H]2C(=O)N3[C@@H]2SC(C)(C)[C@@H]3C(=O)O)c2ccccc2)C(=O)C1=O [Piperacillin, piperacillin]
Host strain YMC14/01/C29
  antibiotic susceptibility class: R
Host strain YMC14/01/IP122
  antibiotic susceptibility class: R
Host strain YMC14/01/L8
  antibiotic susceptibility class: R
Host strain YMC14/01/P31
  antibiotic susceptibility class: R
Host strain YMC14/01/P117
  antibiotic susceptibility class: R
Host strain YMC14/01/P224
  antibiotic susceptibility class: R
Host strain YMC14/01/P727
  antibiotic susceptibility class: R
Host strain YMC14/01/P728
  antibiotic susceptibility class: R
Host strain YMC14/01/R130
  antibiotic susceptibility class: R
Host strain YMC14/01/R160
  antibiotic susceptibility class: R
Host strain YMC14/01/R198
  antibiotic susceptibility class: R
Host strain YMC14/01/R257
  antibiotic susceptibility class: R
Host strain YMC14/01/R270
  antibiotic susceptibility class: R
Host strain YMC14/01/R324
  antibiotic susceptibility class: R
Host strain YMC14/01/R443
  antibiotic susceptibility class: R
Host strain YMC14/01/R451
  antibiotic susceptibility class: R
Host strain YMC14/01/R560
  antibiotic susceptibility class: R
Host strain YMC14/01/R617
  antibiotic susceptibility class: R
Host strain YMC14/01/R671
  antibiotic susceptibility class: R
Host strain YMC14/01/R732
  antibiotic susceptibility class: R
Host strain YMC14/01/R767
  antibiotic susceptibility class: R
Host strain YMC14/01/R904
  antibiotic susceptibility class: R
Host strain YMC14/01/R905
  antibiotic susceptibility class: R
Host strain YMC14/01/R921
  antibiotic susceptibility class: R
Host strain YMC14/01/R941
  antibiotic susceptibility class: R
Host strain YMC14/01/R958
  antibiotic susceptibility class: R
Host strain YMC14/01/R1006
  antibiotic susceptibility class: R
Host strain YMC14/01/R1199
  antibiotic susceptibility class: R
Host strain YMC14/01/R1659
  antibiotic susceptibility class: R
Host strain YMC14/01/R1722
  antibiotic susceptibility class: R
Host strain YMC14/01/R1752
  antibiotic susceptibility class: R
Host strain YMC14/01/R2429
  antibiotic susceptibility class: R
Host strain YMC14/01/R2572
  antibiotic susceptibility class: R
Host strain YMC14/01/R2855
  antibiotic susceptibility class: R
Host strain YMC14/01/R2945
  antibiotic susceptibility class: R
Host strain YMC14/01/R3007
  antibiotic susceptibility class: R
Host strain YMC14/01/R3129
  antibiotic susceptibility class: R
Host strain YMC14/01/R3317
  antibiotic susceptibility class: R
Host strain YMC14/01/R3474
  antibiotic susceptibility class: R
Host strain YMC14/01/R3574
  antibiotic susceptibility class: R
Host strain YMC14/01/U313
  antibiotic susceptibility class: R
Host strain YMC14/01/U318
  antibiotic susceptibility class: R
Host strain YMC14/02/L18
  antibiotic susceptibility class: R
Host strain YMC14/02/P47
  antibiotic susceptibility class: R
Host strain YMC14/02/R1860
  antibiotic susceptibility class: R
Host strain YMC14/02/R2417
  antibiotic susceptibility class: R
Host strain YMC14/02/R2599
  antibiotic susceptibility class: R
Host strain YMC14/02/R2668
  antibiotic susceptibility class: R
Host strain YMC14/02/R2758
  antibiotic susceptibility class: R
Host strain YMC14/02/R2781
  antibiotic susceptibility class: R
Host strain YMC14/02/R3106
  antibiotic susceptibility class: R
Host strain YMC14/02/R3419
  antibiotic susceptibility class: R
Host strain YMC14/02/U1607
  antibiotic susceptibility class: R
Host strain YMC14/03/L9
  antibiotic susceptibility class: R
Host strain YMC14/03/P471
  antibiotic susceptibility class: R
Host strain YMC14/03/R122
  antibiotic susceptibility class: R
Host strain YMC14/03/R217
  antibiotic susceptibility class: R
Host strain YMC14/03/R380
  antibiotic susceptibility class: R
Host strain YMC14/03/R618
  antibiotic susceptibility class: R
Host strain YMC14/03/R2144
  antibiotic susceptibility class: R
Host strain YMC14/03/U4616
  antibiotic susceptibility class: R
Host strain YMC14/04/R1078
  antibiotic susceptibility class: R
Host strain YMC14/04/R1080
  antibiotic susceptibility class: R
Host strain YMC14/06/R2359
  susceptibility category (S/I/R): R
Host strain YMC14/08/R1169
  susceptibility category (S/I/R): R
Host strain YMC14/08/T90
  susceptibility category (S/I/R): R
Host strain YMC15/02/R436
  susceptibility category (S/I/R): R
Host strain YMC15/02/T28
  susceptibility category (S/I/R): R
Host strain YMC15/03/R1604
  susceptibility category (S/I/R): R
Host strain YMC15/09/R1869
  susceptibility category (S/I/R): R
Host strain YMC16/01/P11
  susceptibility category (S/I/R): R
Host strain YMC16/01/R123
  susceptibility category (S/I/R): R
Host strain YMC16/01/R198
  susceptibility category (S/I/R): R
Host strain YMC16/01/R353
  susceptibility category (S/I/R): R
Host strain YMC16/01/R380
  susceptibility category (S/I/R): R
Host strain YMC16/01/R397
  susceptibility category (S/I/R): R
Host strain YMC16/01/R405
  susceptibility category (S/I/R): R
Host strain YMC16/03/R4461
  susceptibility category (S/I/R): R
Host strain YMC16/05/R2210
  susceptibility category (S/I/R): R
Host strain YMC16/07/R2512
  susceptibility category (S/I/R): R
Host strain YMC16/09/R2471
  susceptibility category (S/I/R): R
Host strain YMC16/10/R2537
  susceptibility category (S/I/R): R
Host strain YMC16/12/B11422
  susceptibility category (S/I/R): R
Host strain YMC16/12/B11449
  susceptibility category (S/I/R): R
Host strain YMC16/12/B13325
  susceptibility category (S/I/R): R
Host strain YMC16/12/P503
  susceptibility category (S/I/R): R
Host strain YMC16/12/R4637
  susceptibility category (S/I/R): R
Host strain YMC17/01/B8053
  susceptibility category (S/I/R): R
Host strain YMC17/01/B10087
  susceptibility category (S/I/R): R
Host strain YMC17/01/B12075
  susceptibility category (S/I/R): R
Host strain YMC17/01/B13454
  susceptibility category (S/I/R): R
Host strain YMC17/01/P518
  susceptibility category (S/I/R): R
Host strain YMC17/01/R2812
  susceptibility category (S/I/R): R
Host strain YMC17/02/B14
  susceptibility category (S/I/R): R
Host strain YMC17/02/B87
  susceptibility category (S/I/R): R
Host strain YMC17/02/B721
  susceptibility category (S/I/R): R
Host strain YMC17/02/B4039
  susceptibility category (S/I/R): R
Host strain YMC17/02/B4520
  susceptibility category (S/I/R): R
Host strain YMC17/02/B4864
  susceptibility category (S/I/R): S
Host strain YMC17/02/B8414
  susceptibility category (S/I/R): R
Host strain YMC17/02/P523
  susceptibility category (S/I/R): R
Host strain YMC17/02/R541
  susceptibility category (S/I/R): R
Host strain YMC17/02/R2392
  susceptibility category (S/I/R): R
Host strain YMC17/03/B4730
  susceptibility category (S/I/R): R
Host strain YMC17/03/B5000
  susceptibility category (S/I/R): R
Host strain YMC17/03/P971
  susceptibility category (S/I/R): R
Host strain YMC17/03/R348
  susceptibility category (S/I/R): R
Host strain YMC17/03/R585
  susceptibility category (S/I/R): R
Host strain YMC17/03/R1888
  susceptibility category (S/I/R): R
Host strain YMC17/03/R3279
  susceptibility category (S/I/R): R
Host strain YMC17/03/R4077
  susceptibility category (S/I/R): R
Host strain YMC17/03/R4607
  susceptibility category (S/I/R): R
Host strain YMC17/04/R488
  susceptibility category (S/I/R): R
Host strain YMC17/04/R640
  susceptibility category (S/I/R): R
Host strain YMC/17/05/R1095
  susceptibility category (S/I/R): R
